In ChEMBL document CHEMBL3608223, “Quinolizidine alkaloids reduced mortality in EV71-infected mice by compensating for the levels of T cells” (2015):
The source made the active and inactive calls. No cut-off for these calls is given here.

Columns and labels:
[1] = system: Mus musculus; assay: Immunoregulatory activity in […] mouse assessed as increase in CD8+ T cells at 60 mg/kg, ip once daily for 8 days by flow cytometry; assay type: functional, organism-based; conditions: T-cell
[2] = system: Mus musculus; assay: Immunoregulatory activity in […] mouse assessed as increase in CD3+ T cells at 60 mg/kg, ip once daily for 8 days by flow cytometry; assay type: functional, organism-based; conditions: T-cell
[3] = system: Mus musculus; assay: Immunoregulatory activity in […] mouse assessed as increase in CD4+ T cells at 60 mg/kg, ip once daily for 8 days by flow cytometry; assay type: functional, organism-based; conditions: T-cell
[4] = system: Mus musculus; assay: Immunoregulatory activity in […] mouse assessed as reduction in B cells at 60 mg/kg, ip once daily for 8 days by flow cytometry; assay type: functional, organism-based
[5] = system: Mus musculus; assay: Immunoregulatory activity in […] mouse assessed as reduction in DC cells at 60 mg/kg, ip once daily for 8 days by flow cytometry; assay type: functional, organism-based
[6] = system: Enterovirus A71; assay: Antiviral activity against human enterovirus 71 infected in ICR mouse assessed as increase in survival rate at 15 mg/kg, ip qd for 8 days dosed 2 hrs post infection and measured at 14 days post infection relative to control; assay type: functional, organism-based
[7] = system: Mus musculus; assay: Immunoregulatory activity in […] mouse assessed as reduction in NK cells at 60 mg/kg, ip once daily for 8 days by flow cytometry; assay type: functional, organism-based
[8] = system: Mus musculus; assay: Immunoregulatory activity in […] mouse infected with human enterovirus 71 assessed as increase in CD4+ T cells at 15 mg/kg, ip once daily for 8 days by flow cytometry and measured at 8 days post infection; assay type: functional, organism-based; conditions: T-cell
[9] = system: Enterovirus A71; assay: Antiviral activity against human enterovirus 71 infected in ICR mouse assessed as increase in survival rate at 15 mg/kg, ip qd for 8 days dosed 2 hrs post infection and measured at 14 days post infection; assay type: functional
[10] = system: Enterovirus A71; assay: Antiviral activity against human enterovirus 71 infected in ICR mouse assessed as increase in survival rate at 30 mg/kg, ip qd for 8 days dosed 2 hrs post infection and measured at 14 days post infection; assay type: functional
[11] = system: Mus musculus; assay: Immunoregulatory activity in […] mouse infected with human enterovirus 71 assessed as increase in CD3+ T cells at 15 mg/kg, ip once daily for 8 days by flow cytometry and measured at 8 days post infection; assay type: functional, organism-based; conditions: T-cell
[12] = system: Enterovirus A71; assay: Antiviral activity against human enterovirus 71 infected in ICR mouse assessed as reduction in viral infection-induced phenotypic changes by measuring ruffled hair incidences at 15 mg/kg, ip qd for 8 days dosed 2 hrs post infection and measured at 8 days post infection; assay type: functional, organism-based
[13] = system: Mus musculus; assay: Immunoregulatory activity in […] mouse infected with human enterovirus 71 assessed as increase in CD8+ T cells at 15 mg/kg, ip once daily for 8 days by flow cytometry and measured at 8 days post infection; assay type: functional, organism-based; conditions: T-cell
[14] = system: Enterovirus A71; assay: Antiviral activity against human enterovirus 71 infected in ICR mouse assessed as increase in survival rate at 7.5 mg/kg, ip qd for 8 days dosed 2 hrs post infection and measured at 14 days post infection; assay type: functional
[15] = system: Enterovirus A71; assay: Antiviral activity against human enterovirus 71 infected in ICR mouse assessed as mouse recovery from infection in 15 mg/kg, ip qd for 8 days dosed 2 hrs post infection and measured at 14 days post infection; assay type: functional, organism-based
[16] = system: Enterovirus A71; assay: Antiviral activity against human enterovirus 71 infected in ICR mouse assessed as reduction in viral infection realted clinical scores at 15 mg/kg, ip qd for 8 days dosed 2 hrs post infection; assay type: functional, organism-based
[17] = system: Enterovirus A71; assay: Antiviral activity against human enterovirus 71 infected in ICR mouse assessed as reduction in viral infection related clinical scores at 15 mg/kg, ip qd for 8 days dosed 2 hrs post infection and measured at 8 days post infection; assay type: functional, organism-based
[18] = system: Enterovirus A71; assay: Antiviral activity against human enterovirus 71 infected in ICR mouse assessed as reduction in mouse body weight loss at 15 mg/kg, ip qd for 8 days dosed 2 hrs post infection; assay type: functional, organism-based
[19] = system: Enterovirus A71; assay: Antiviral activity against human enterovirus 71 infected in ICR mouse assessed as reduction in viral replications in muscle at 15 mg/kg, ip qd for 8 days dosed 2 hrs post infection and measured at 8 days post infection by qRT-PCR method; assay type: functional, organism-based
[20] = system: Enterovirus A71; assay: Antiviral activity against human enterovirus 71 infected in ICR mouse assessed as reduction in viral infection-induced phenotypic changes by measuring paralysis incidences at 15 mg/kg, ip qd for 8 days dosed 2 hrs post infection and measured at 8 days post infection; assay type: functional, organism-based
[21] = system: Enterovirus A71; assay: Antiviral activity against human enterovirus 71 infected in ICR mouse assessed as increase in survival rate at 50 mg/kg, ip qd for 8 days dosed 2 hrs post infection and measured at 14 days post infection; assay type: functional

## O=C1C=CC[C@@H]2[C@H]3CCCN4CCC[C@@H](CN12)[C@@H]34
[1]
  Activity: Active
[2]
  Activity: Active
[3]
  Activity: Active
[4]
  Activity: Active
[5]
  Activity: Active
[6]
  Activity: Active
[7]
  Activity: Active

## O=C1C=CC[C@@H]2[C@H]3CCC[N+]4([O-])CCC[C@@H](CN12)[C@@H]34 (stereo partly specified) [OXYSOPHOCARPINE]
[1]
  Activity: Active
[2]
  Activity: Active
[8]
  Activity: Active
[9]
  Activity: 30%
[10]
  Activity: 25%
[3]
  Activity: Active
[4]
  Activity: Active
[11]
  Activity: Active
[12]
  Activity: Active
[5]
  Activity: Active
[13]
  Activity: Active
[6]
  Activity: Active
[14]
  Activity: 25%
[7]
  Activity: Active
[15]
  Activity: Active
[16]
  Activity: Active
[17]
  Activity: Active
[18]
  Activity: Active
[19]
  Activity: Active
[20]
  Activity: Active

## O=c1cccc2n1C[C@@H]1CCCN3CCC[C@H]2[C@H]13
[1]
  Activity: Active
[2]
  Activity: Active
[3]
  Activity: Active
[4]
  Activity: Active
[5]
  Activity: Active
[6]
  Activity: Active
[7]
  Activity: Active

## NC(=O)c1ncn([C@@H]2O[C@H](CO)[C@@H](O)[C@H]2O)n1 [RIBAVIRIN]
[21]
  Activity: 15%

## O=C1CCC[C@@H]2[C@H]3CCCN4CCC[C@@H](CN12)[C@@H]34
[1]
  Activity: Active
[2]
  Activity: Active
[3]
  Activity: Active
[4]
  Activity: Active
[5]
  Activity: Active
[6]
  Activity: Active
[7]
  Activity: Active

## O=C1CCC[C@@H]2[C@H]3CCCN4CCC[C@H](CN12)[C@@H]34
[1]
  Activity: Active
[2]
  Activity: Active
[3]
  Activity: Active
[4]
  Activity: Active
[5]
  Activity: Active
[6]
  Activity: Active
[7]
  Activity: Active

## O=C1CCC[C@@H]2[C@H]3CCC[N+]4([O-])CCC[C@@H](CN12)[C@@H]34 (stereo partly specified)
[1]
  Activity: Active
[2]
  Activity: Active
[3]
  Activity: Active
[4]
  Activity: Active
[5]
  Activity: Active
[6]
  Activity: Active
[7]
  Activity: Active
